In general, IC50 refers to the concentration that gives 50% inhibition. A high value points to lower potency.

The target in one test is human LRRK2 kinase (Homo sapiens, UniProt Q5S007). The settings on record: LRRK2, ADP-Glo, ATP 10 μM, 60 minutes at 25° C.
Another test addresses T1, panel of 468 kinases (Homo sapiens, UniProt Q8IYT8).
T1 construct: purchased KINOMEscan (ScanMAX) service
T1 sequence (Q8IYT8 1-1036): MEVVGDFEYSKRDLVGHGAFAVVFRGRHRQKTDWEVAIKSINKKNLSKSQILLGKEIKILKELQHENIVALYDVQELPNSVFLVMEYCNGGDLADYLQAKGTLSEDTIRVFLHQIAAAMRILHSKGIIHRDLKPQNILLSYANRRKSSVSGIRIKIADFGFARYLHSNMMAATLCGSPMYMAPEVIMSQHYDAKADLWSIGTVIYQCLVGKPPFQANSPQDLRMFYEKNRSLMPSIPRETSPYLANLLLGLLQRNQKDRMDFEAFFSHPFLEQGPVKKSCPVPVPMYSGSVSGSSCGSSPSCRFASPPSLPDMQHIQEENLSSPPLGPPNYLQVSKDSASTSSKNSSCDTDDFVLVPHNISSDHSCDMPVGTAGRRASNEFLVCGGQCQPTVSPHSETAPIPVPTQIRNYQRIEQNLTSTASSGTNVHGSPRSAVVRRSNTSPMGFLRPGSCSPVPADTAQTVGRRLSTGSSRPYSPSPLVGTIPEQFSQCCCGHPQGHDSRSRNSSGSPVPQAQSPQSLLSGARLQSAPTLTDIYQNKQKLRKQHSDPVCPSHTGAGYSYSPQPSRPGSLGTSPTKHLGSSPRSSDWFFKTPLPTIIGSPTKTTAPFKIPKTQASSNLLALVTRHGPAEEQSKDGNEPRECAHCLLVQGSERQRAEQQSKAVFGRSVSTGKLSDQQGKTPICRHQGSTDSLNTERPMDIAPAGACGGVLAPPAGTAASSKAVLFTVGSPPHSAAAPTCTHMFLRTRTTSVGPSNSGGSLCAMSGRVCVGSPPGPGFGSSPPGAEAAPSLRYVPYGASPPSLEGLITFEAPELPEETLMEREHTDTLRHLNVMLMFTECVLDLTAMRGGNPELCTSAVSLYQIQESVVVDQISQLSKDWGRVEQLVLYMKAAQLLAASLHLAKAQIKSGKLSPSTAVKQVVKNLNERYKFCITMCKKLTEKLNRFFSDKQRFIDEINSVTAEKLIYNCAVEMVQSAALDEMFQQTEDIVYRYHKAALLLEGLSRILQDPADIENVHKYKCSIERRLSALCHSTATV
As to the kind of experiment: KINOMEscan (ScanMAX) kinase profiling. Conditions: ULK2; 1 μM; read-out: % control. Type of test: binding.

The next test has as its target T2, wild-type LRKK2 (Mus musculus, UniProt Q5S006).
T2 construct: endogenous in cells; host or cells: NIH-3T3
Briefly: LRRK2 immunoblot, phosphorylation of Ser935, NIH-3T3 cell lysates. Type of test: cell-based. The settings on record: FIG. 1. How it is done: Cell lysates were extracted from the NIH-3T3 cell pellet using lysis buffer (40 mM Tris-HCl pH 8.0, 120 mM NaCl, 0.10% Nonidet™-P40) supplemented with protease inhibitors. Proteins in whole-cell lysates were separated by SDS-PAGE and transferred to an Amersham™ nitrocellulose membrane (Amersham, UK). Nitrocellulose membranes were blocked with 5% skim milk in phosphate-buffered saline containing Tween 20 and incubated with primary antibodies overnight at 4° C. The blots were then incubated with the appropriate horseradish peroxidase (HRP)-conjugated secondary antibodies and proteins were visualized by enhanced chemiluminescence, according to the manufacturer's protocol (Amersham™ Western blotting). Secondary antibodies, anti-rabbit IgG-HRP were purchased from Cell Signaling technology. Immunoblot film were scanned on a LAS500 scanner, and images were managed with Adobe Photoshop
(A western blot detects proteins with antibodies after separation by electrophoresis.)

Structures are written as SMILES. Bounds are passed on as bounds.

Sequence of human LRRK2 kinase (Q5S007 whole entry): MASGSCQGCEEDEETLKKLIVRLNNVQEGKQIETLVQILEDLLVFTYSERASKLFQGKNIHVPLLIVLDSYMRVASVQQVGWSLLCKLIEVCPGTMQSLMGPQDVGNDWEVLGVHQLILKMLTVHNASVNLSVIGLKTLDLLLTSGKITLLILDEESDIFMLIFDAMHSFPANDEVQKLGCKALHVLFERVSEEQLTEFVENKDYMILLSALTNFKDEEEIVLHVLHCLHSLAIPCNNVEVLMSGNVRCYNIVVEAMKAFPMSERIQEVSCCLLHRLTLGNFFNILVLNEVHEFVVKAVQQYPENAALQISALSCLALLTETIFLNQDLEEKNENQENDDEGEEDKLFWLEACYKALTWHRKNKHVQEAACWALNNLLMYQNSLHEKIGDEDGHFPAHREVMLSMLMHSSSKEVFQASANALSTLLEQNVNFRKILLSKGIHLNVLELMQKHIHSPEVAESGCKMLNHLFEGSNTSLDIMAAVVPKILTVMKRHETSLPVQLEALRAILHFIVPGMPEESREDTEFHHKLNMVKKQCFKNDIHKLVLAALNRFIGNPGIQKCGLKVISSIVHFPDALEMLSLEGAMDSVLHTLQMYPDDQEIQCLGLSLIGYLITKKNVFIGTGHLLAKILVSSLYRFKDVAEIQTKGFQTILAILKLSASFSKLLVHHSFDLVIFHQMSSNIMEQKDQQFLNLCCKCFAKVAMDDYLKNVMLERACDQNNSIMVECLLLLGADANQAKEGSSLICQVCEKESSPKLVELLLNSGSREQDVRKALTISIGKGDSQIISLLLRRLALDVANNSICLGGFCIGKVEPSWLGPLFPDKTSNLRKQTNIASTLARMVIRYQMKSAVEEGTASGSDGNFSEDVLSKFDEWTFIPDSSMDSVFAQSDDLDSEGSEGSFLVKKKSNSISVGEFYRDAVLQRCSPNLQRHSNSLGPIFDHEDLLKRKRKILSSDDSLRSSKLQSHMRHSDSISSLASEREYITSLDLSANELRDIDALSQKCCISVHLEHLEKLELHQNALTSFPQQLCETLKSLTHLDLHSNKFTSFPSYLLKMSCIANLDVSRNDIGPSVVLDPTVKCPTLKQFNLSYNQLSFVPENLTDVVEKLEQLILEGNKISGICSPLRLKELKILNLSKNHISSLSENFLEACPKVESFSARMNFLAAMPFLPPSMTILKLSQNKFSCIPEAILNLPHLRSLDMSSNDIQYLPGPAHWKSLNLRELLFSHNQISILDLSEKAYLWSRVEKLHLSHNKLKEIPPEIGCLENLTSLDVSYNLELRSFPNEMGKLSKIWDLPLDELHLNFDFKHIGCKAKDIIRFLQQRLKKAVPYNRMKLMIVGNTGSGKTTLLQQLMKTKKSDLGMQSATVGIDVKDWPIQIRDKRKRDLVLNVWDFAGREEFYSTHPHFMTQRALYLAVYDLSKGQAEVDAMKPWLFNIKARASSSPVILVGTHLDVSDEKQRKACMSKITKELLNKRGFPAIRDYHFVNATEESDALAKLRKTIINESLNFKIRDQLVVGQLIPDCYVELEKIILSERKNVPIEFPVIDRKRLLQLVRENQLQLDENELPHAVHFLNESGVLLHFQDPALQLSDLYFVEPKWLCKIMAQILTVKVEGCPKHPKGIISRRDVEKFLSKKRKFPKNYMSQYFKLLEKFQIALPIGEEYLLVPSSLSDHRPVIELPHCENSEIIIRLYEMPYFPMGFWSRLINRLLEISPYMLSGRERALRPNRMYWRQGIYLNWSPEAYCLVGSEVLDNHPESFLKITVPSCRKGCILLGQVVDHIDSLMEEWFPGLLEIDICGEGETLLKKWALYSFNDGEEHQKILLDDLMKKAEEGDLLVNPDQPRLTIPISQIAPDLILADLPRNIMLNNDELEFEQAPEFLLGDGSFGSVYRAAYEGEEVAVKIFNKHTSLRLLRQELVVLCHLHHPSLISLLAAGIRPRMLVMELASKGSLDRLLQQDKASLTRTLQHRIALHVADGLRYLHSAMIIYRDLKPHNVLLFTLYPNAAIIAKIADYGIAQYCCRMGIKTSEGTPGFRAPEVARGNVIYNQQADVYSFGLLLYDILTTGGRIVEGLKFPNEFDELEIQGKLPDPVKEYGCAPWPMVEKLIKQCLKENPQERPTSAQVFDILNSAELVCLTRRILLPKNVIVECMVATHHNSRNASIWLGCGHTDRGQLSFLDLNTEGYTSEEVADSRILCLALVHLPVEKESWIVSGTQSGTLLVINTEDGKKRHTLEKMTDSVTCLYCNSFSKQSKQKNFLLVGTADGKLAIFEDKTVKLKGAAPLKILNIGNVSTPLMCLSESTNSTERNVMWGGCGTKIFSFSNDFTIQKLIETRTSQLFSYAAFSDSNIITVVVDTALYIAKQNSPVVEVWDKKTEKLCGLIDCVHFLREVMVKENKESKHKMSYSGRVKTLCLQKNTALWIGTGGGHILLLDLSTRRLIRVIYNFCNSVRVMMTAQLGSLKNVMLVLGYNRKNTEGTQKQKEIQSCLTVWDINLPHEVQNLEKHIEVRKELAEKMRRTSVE
T2 sequence (Q5S006 whole entry): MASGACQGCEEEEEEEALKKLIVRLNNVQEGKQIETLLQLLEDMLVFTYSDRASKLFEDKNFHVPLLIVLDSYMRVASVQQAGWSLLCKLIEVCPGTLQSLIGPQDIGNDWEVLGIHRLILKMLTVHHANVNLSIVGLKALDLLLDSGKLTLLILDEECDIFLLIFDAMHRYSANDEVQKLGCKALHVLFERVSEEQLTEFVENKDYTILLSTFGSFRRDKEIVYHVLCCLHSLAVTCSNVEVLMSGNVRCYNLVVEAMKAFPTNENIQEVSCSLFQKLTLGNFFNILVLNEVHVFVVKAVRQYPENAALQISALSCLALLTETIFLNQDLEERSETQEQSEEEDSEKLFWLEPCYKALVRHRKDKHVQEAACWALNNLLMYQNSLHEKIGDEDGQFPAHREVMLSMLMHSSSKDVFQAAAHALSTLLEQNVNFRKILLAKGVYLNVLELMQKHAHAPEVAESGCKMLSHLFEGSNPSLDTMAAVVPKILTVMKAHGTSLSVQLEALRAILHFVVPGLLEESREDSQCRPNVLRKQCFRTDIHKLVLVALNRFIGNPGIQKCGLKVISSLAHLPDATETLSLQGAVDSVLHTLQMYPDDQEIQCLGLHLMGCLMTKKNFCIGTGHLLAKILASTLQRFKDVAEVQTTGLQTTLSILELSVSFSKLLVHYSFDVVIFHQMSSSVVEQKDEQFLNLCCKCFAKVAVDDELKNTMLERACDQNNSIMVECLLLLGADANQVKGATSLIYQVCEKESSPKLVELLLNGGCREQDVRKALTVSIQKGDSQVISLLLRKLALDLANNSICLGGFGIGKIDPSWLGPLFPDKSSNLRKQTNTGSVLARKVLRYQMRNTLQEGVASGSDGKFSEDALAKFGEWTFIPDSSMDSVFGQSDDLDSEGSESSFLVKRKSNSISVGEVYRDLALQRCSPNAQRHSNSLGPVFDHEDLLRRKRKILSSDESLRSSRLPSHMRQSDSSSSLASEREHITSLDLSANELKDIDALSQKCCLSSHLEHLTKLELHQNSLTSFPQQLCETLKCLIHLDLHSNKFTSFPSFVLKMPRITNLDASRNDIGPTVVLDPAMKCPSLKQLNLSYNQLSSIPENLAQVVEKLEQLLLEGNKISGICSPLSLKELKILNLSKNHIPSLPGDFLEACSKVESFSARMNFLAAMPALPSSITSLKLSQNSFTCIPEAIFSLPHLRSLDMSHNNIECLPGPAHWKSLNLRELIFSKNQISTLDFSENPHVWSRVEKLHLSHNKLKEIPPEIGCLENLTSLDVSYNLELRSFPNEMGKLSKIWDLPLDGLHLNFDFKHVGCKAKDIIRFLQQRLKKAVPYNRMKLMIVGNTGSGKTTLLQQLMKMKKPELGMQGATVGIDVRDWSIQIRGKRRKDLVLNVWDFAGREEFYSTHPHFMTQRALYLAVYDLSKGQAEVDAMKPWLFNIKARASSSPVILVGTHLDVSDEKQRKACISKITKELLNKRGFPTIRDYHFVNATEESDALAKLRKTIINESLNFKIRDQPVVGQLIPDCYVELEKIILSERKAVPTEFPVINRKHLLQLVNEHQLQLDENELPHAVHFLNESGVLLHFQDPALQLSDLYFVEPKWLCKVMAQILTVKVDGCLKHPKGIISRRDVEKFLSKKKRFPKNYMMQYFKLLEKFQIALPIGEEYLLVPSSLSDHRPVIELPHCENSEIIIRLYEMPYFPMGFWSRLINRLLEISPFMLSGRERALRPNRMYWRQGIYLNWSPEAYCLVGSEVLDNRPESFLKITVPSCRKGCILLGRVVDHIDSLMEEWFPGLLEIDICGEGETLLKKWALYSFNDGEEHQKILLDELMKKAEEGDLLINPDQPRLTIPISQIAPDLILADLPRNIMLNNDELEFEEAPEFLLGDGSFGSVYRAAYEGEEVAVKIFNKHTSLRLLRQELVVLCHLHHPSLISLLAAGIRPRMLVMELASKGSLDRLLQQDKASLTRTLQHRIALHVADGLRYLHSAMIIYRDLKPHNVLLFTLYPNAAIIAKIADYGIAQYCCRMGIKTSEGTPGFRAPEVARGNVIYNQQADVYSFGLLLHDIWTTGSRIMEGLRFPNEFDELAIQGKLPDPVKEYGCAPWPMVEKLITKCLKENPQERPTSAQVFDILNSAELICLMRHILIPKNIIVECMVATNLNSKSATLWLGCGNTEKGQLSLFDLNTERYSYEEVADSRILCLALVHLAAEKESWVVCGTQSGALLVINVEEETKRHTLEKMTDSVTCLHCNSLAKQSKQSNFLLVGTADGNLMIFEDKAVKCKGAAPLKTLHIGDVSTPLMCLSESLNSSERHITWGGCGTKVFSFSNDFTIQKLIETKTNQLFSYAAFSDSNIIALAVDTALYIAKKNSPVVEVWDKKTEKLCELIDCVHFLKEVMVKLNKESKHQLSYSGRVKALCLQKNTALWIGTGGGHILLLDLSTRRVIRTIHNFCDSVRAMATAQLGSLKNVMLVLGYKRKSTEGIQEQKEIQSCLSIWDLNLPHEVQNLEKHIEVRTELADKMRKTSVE
Method for human LRRK2 kinase: Assay kits from Promega™ Corporation were used according to instructions and adapted as outlined herein. […] The kinase reaction was performed with kinase reaction buffer (40 mM Tris base pH 7.4, 20 mM MgCl2, 0.5 mM dithiothreitol), 0.1 mg/ml bovine serum albumin, distilled H2O). […] In brief, the kinase reactions were started by addition of ATP to the kinase reaction mixture. The resulting mixture was incubated for 60 minutes at 25° C., and then stopped by adding 5 μl of ADP-Glo™ reagent. After incubation at room temperature in the dark for 40 minutes, 10 μl of kinase detection reagent was added per well, and the mixture was incubated for 10 minutes. […] Positive and negative controls were performed in 0.5% DMSO in the presence and absence of LRRK2 kinases. Curve fitting and data presentations were performed using GraphPad Prism version 5.0 (GraphPad Software, Inc.).

`CNc1nc(Nc2ccc(S(=O)(=O)N3CCC(N4CCOCC4)CC3)cc2OC)nc2[nH]cc(Cl)c12` [Compound 12, 5-chloro-N2-(2-methoxy-4-((4-morpholinopiperidin-1-yl)sulfonyl)phenyl)-N4-methyl-7H-pyrrolo[2,3-d]pyrimidine-2,4-diamine] displayed an IC50 against human LRRK2 kinase of less than 10 nM. Moreover, the remaining binding at 1 µM at panel of 468 kinases turned out to be 96%.

Regarding `CNc1nc(Nc2ccc(P3(=O)CCN(C4CCOCC4)CC3)cc2OC)nc2[nH]cc(Cl)c12` [Compound 77, 4-(4-((5-chloro-4-(methylamino)-7H-pyrrolo[2,3-d]pyrimidin-2-yl)amino)-3-methoxyphenyl)-1-(tetrahydro-2H-pyran-4-yl)-1,4-azaphosphinane 4-oxide], the “inhibition of the phosphorylation of Ser935 in wild-type LRKK2” value on wild-type LRKK2 was “inhibited the phosphorylation of Ser935 in wild-type LRKK2 with potency similar to known LRRK2 inhibitor LRRK2-IN-1”. On human LRRK2 kinase, the half-inhibitory concentration (IC50) was less than 10 nM. For the same compound, the remaining binding at 1 µM on panel of 468 kinases was 91%.

Regarding `CNc1nc(Nc2ccc(C(=O)N3CCC(N4CCOCC4)CC3)c3c2OCO3)nc2[nH]cc(Cl)c12` [Compound 75, (7-((5-chloro-4-(methylamino)-7H-pyrrolo[2,3-d]pyrimidin-2-yl)amino)benzo[d][1,3]dioxol-4-yl)(4-morpholinopiperidin-1-yl)methanone], the IC50 against human LRRK2 kinase was less than 10 nM. Also, the remaining binding at 1 µM at panel of 468 kinases stood at 79%.
